Test results published in patent US20250345378A1 (priority 2022, published 2025).
Read-outs that look alike come from different tables or passages of the source.

What was measured:
[1] = system: 88 urinary tract infection E. coli isolates; assay type: cell-based, Escherichia coli; details: for Host Range % on MDR Subset (n = 21), Combination: Antibiotic + LBP-EC01 v.2 / Host Range % on all Strains (n = 88), Combination: Antibiotic + LBP-EC01 v.2 / Host Range % on Beta-lactam-Resistant Subset (n = 31), Combination: Antibiotic + LBP-EC01 v.2: antibiotic combined with LBP-EC01 v.2; for Host Range % on all Strains (n = 88), Combination: Antibiotic + CK618 v.2: antibiotic at breakpoint concentration plus cocktail 1 × 10^6 PFU/ml per bacteriophage
Procedure: (§1) Phage cocktail CK618 was tested in combination with and alongside antibiotics against two isolate panels. The first assay used a panel of 88 contemporaneous urinary tract infection (UTI) isolates from North America, Europe, Latin America, and Asia. […] The second assay used a panel made up of a 300-strain clinical isolate panel (Table 14) with an additional 4 strains of interest. […] Four of the same SOC antibiotics tested against the 88-isolate panel were tested against this panel. The non-SOC antibiotics were not included due to their limited use in clinical settings, and nitrofurantoin was not included due to the low probability of resistance to this drug.
(§2) For both isolate panels, antibiotic concentrations tested were determined by using Clinical and Laboratory Standards Institute (CLSI) or European Committee on Antimicrobial Susceptibility Testing (EUCAST) breakpoints at concentrations that kill susceptible isolates but allow intermediate or resistant isolates to grow in the standard AST microdilution assay (Table 17).
(§3) The composition of the proposed Phase 2 CRISPR-enhanced bacteriophage (CRISPR-phage, hereafter termed ‘crPhage’) cocktail (CK618) has been updated from the CK570 to include six bacteriophages as compared to three bacteriophages in CK570. Bacteriophage cocktail CK618, was prepared such that all bacteriophages had equivalent titers in the final cocktail. The cocktail was then mixed with bacteria to obtain final titers of 1×10^6 plaque-forming unit (PFU)/mL/phage for the cocktail and 1×10^5 colony-forming unit (CFU)/mL for the bacteria, resulting in a multiplicity of infection (MOI) of 10 for each bacteriophage in a sample. Briefly, 5 μl of each sample (CK618 alone, CK618 and antibiotics, antibiotics alone, or medium alone) was added to 5 μl of optical density (OD)-normalized bacterial isolate and 40 μl LB medium. Reactions were incubated at 37° C. with shaking and OD measurements were taken each hour for 20 hours.
(§4) Host range percentage is the percent of isolates that responded to treatment of antibiotics or CK618. In the case of the 88-isolate panel, results were analyzed on the complete panel as well as the subset of classified as multidrug-resistant (MDR) (n=21) and beta-lactam-resistant (n=31).
(§5) The first assay used a panel of 88 contemporaneous isolates. Twenty-one of those strains are classified as MDR, with resistance to 3 or more antibiotic classes. […] The second assay used the panel made up of a 300-strain clinical isolate panel with an additional 4 strains of interest.
(§6) Antibiotic concentrations tested were determined by using CLSI or EUCAST breakpoints at concentrations that kill susceptible strains but allow intermediate or resistant strains to grow in the standard AST microdilution assay (Table 27). LBP-EC01 v.2 was combined with bacteria resulting in a MO of 10 for each bacteriophage in a sample. In the case of the 88-isolate panel, results were analyzed on the complete panel as well as the subset of isolates classified as multidrug-resistant (MDR) (n=21) and beta-lactam-resistant (n=31).

[2] = system: 304 E. coli clinical isolates; assay type: cell-based, Escherichia coli; details: 304-isolate panel
Procedure: as §1, §2, §3, §4, §5, §6

[3] = 88-isolate panel, MDR subset, single agent
[4] = 88-isolate panel, all strains, single agent
[5] = 88-isolate panel, beta-lactam-resistant subset
[6] = 88-isolate panel, beta-lactam-resistant subset, single agent
[7] = antibiotic at breakpoint concentration (Table 17), cocktail 1 × 10^6 PFU/ml per bacteriophage, MOI 10

Row | SMILES | Host Range % on Beta-lactam-Resistant Subset (n = 31), Combination: Antibiotic + CK618 v.2 ([1]; 88-isolate panel) | Host Range % on Beta-lactam-Resistant Subset (n = 31), Single agent treatment ([1]; 88-isolate panel) | Host Range % on MDR Subset (n = 21), Combination: Antibiotic + CK618 v.2 ([1]; 88-isolate panel) | Host Range % on MDR Subset (n = 21), Single agent treatment ([1]; 88-isolate panel) | Host Range % on MDR Subset (n = 21), Combination: Antibiotic + LBP-EC01 v.2 ([1]; 88-isolate panel, MDR subset) | Host Range % on MDR Subset (n = 21), Single agent treatment [1, 3] | Host Range % on all Strains (n = 88), Combination: Antibiotic + LBP-EC01 v.2 ([1]; 88-isolate panel, all strains) | Host Range % on all Strains (n = 88), Single agent treatment [1, 4] | Host Range % on Beta-lactam-Resistant Subset (n = 31), Combination: Antibiotic + LBP-EC01 v.2 [1, 5] | Host Range % on Beta-lactam-Resistant Subset (n = 31), Single agent treatment [1, 6] | Host Range % on all Strains (n = 88), Single agent treatment [1, 7] | Host Range % on all Strains (n = 88), Combination: Antibiotic + CK618 v.2 [1] | Host range % on MDR subset (n = 93), Combination: Antibiotic + LBP-CK618 [2] | Host range % on MDR subset (n = 93), Single agent treatment [2] | Host range % on beta-lactam-resistant subset (n = 91), Combination: Antibiotic + LBP-CK618 [2] | Host range % on beta-lactam-resistant subset (n = 91), Single agent treatment [2] | Host Range % on MDR Subset (n = 93), Combination Antibiotic + LBP-EC01 v.2 ([2]; MDR subset, antibiotic combined with LBP-EC01 v.2) | Host Range % on all Strains (n = 304), Single agent treatment ([2]; all strains, single agent) | Host Range % on Beta-lactam-Resistant Subset (n = 91), Combination: Antibiotic + LBP-EC01 v.2 ([2]; beta-lactam-resistant subset, antibiotic combined with LBP-EC01 v.2) | Host range % on beta-lactam-resistant subset (n = 91), Single agent treatment ([2]; beta-lactam-resistant subset, single agent)
1 | O=C1CN(/N=C/c2ccc([N+](=O)[O-])o2)C(=O)N1 [Nitrofurantoin] | 97.8% | 90.3% | 98.4% | 85.7% | 98.4% | 85.7% | 93.9% | 83.0% | 97.8% | 90.3% | 83.0% | 93.9% |  |  |  |  |  |  |  | 
2 | CC1=C(C(=O)O)N2C(=O)[C@@H](NC(=O)[C@H](N)c3ccccc3)[C@H]2SC1 [Cephalexin] | 81.7% | 11.8% | 76.2% | 14.3% | 76.2% | 14.3% | 87.9% | 49.2% | 81.7% | 11.8% | 49.2% | 87.9% | 79.6% | 24.7% | 79.1% | 8.8% | 79.6% | 57.6% | 79.1% | 8.8%
